Data on 3 molecules can be found in patent publication US7935485B2, “Genetic polymorphisms for identifying individuals at risk for drug-induced vestibular dysfunction” (University of Maryland College Park, priority 2007, dated 2011).

“Also recorded” adds a separate entry of the source.

In one data set the test system is vestibular hair cell. Conditions: by inhibiting NO and ROS production; cited from earlier work.
For data set [1] the following is noted: cited from earlier work.
The conditions of data set [2]: in vivo; cited from earlier work.
The nature of data set [3]: Case/control study, subject characteristics of cases with GM-induced vestibular dysfunction. Format: in vivo, human. Conditions: attributed to GM therapy. On the procedure: Subjects: Subjects were recruited for participation in a case/control study. Cases were recruited from various vestibular dysfunction support groups through advertisements and direct mailings. Cases were included if they could document profound unilateral or bilateral vestibular loss due specifically to GM administration after the age of 18 yr. […] Normal vestibular function was determined with the use of a clinical balance function questionnaire and medical history information. There are no apparent sex or racial differences in susceptibility to GM-induced vestibular dysfunction, so no inclusion limitations were made on those parameters, although the vast majority of recruited subjects were white. Because allele frequencies for many polymorphisms differ by race and only 10 non-white subjects completed the study, all results are presented for the 263 white participants. Children have higher risk for GM-induced ototoxicity, so only individuals >18 yr. and who were >18 yr. at the time of GM therapy were included. All subjects provided written informed consent and all procedures were approved by the University of Maryland Institutional Review Board.
Procedures: Potential subjects completed medical history and balance function questionnaires, and patients specifically provided medical record release authorizations. […]

The conditions of data set [4]: provided simultaneously with GM; cited from earlier work.

`O[C@@H]1CO[C@H]2[C@@H]1OC[C@@H]2O` [isosorbide]: in the data set with vestibular hair cell, the “effect on GM-induced vestibular hair cell death” value is “delay GM-induced vestibular hair cell death”.

As for gentamicin [GM], in data set [1] (GM-treated patients (33), different patients than those with auditory dysfunction), the vestibular dysfunction result is “three”. Moreover, the auditory dysfunction result in data set [1] (GM-treated patients, number affected of 33) is listed as “three of 33”. For the same molecule, in data set [2], the metabolism entry is listed as “not metabolized, but simply excreted by the kidney; also recorded: not metabolized by the body”. Also, in data set [3], the “Hearing complications, (%)” value is on record as “(34%)” and the “Renal complications, (%)” value is “(14%)”.

B1: BDNF: brain-derived neurotrophic factor, a neurotrophic factor (protein, UniProt P23560 19-247, looked up)
Neurotrophic factor BDNF …: APMKEANIRGQGGLAYPGVRTHGTLESVNGPKAGSRGLTSLADTFEHVIEELLDEDQKVRPNEENNKDADLYTSRVMLSSQVPLEPPLLFLLEEYKNYLDAANMSMRVRRHSDPARRGELSVCDSISEWVTAADKKTAVDMSGGTVTVLEKVPVSKGQLKQYFYETKCNPMGYTKEGCRGIDKRHWNSQCRTTQSYVRALTMDSKKRIGWRFIRIDTSCVCTLTIKRGR
Consider B1, for which the “effect on ototoxic damage” value in data set [4] was “limits ototoxic damage”.
